Test results as given in PubChem BioAssay AID1918994 (Molecular Pharmacology Branch, DTP, NCI, 2023).

Test system: 292921-168-R-J2-PDC complex spheroid growth
Assay: Anticancer human tumor 292921-168-R-J2-PDC patient-derived pancreatic carcinoma cell line growth inhibition [AhR]
Settings: for IC50: curve of first compound; for viability, T/C: stronger effect = lower value
In short: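 Agents were dosed in half-log steps down from roughly clinical Cmax, or from 10 microM where Cmax was unknown, alone and with AhR antagonists. Read-out: percent test/control growth of tumor spheroids containing HUVEC and MSC stromal cells.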

[1] = second compound 0.1 µM, first compound 0.00316 µM
[2] = second compound 0.1 µM, first compound 0.01 µM
[3] = second compound 0.1 µM, first compound 0.0316 µM
[4] = second compound 0.1 µM, first compound 0.1 µM
[5] = second compound 0.316 µM, first compound 0.00316 µM
[6] = second compound 0.316 µM, first compound 0.01 µM
[7] = second compound 0.316 µM, first compound 0.0316 µM
[8] = second compound 0.316 µM, first compound 0.1 µM
[9] = second compound 1 µM, first compound 0.00316 µM
[10] = second compound 1 µM, first compound 0.01 µM
[11] = second compound 1 µM, first compound 0.0316 µM
[12] = second compound 1 µM, first compound 0.1 µM
[13] = second compound 3.16 µM, first compound 0.00316 µM
[14] = second compound 3.16 µM, first compound 0.01 µM
[15] = second compound 3.16 µM, first compound 0.0316 µM
[16] = second compound 3.16 µM, first compound 0.1 µM
[17] = second compound 10 µM, first compound 0.00316 µM
[18] = second compound 10 µM, first compound 0.01 µM
[19] = second compound 10 µM, first compound 0.0316 µM
[20] = second compound 10 µM, first compound 0.1 µM
[21] = second compound 0.1 µM, first compound 0.316 µM
[22] = second compound 0.1 µM, first compound 1 µM
[23] = second compound 0.1 µM, first compound 3.16 µM
[24] = second compound 0.1 µM, first compound 10 µM
[25] = second compound 0.316 µM, first compound 0.316 µM
[26] = second compound 0.316 µM, first compound 1 µM
[27] = second compound 0.316 µM, first compound 3.16 µM
[28] = second compound 0.316 µM, first compound 10 µM
[29] = second compound 1 µM, first compound 0.316 µM
[30] = second compound 1 µM, first compound 1 µM
[31] = second compound 1 µM, first compound 3.16 µM
[32] = second compound 1 µM, first compound 10 µM
[33] = second compound 3.16 µM, first compound 0.316 µM
[34] = second compound 3.16 µM, first compound 1 µM
[35] = second compound 3.16 µM, first compound 3.16 µM
[36] = second compound 3.16 µM, first compound 10 µM
[37] = second compound 10 µM, first compound 0.316 µM
[38] = second compound 10 µM, first compound 1 µM
[39] = second compound 10 µM, first compound 3.16 µM
[40] = second compound 10 µM, first compound 10 µM
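Note: spheroids exposed to compounds for seven days after three days of growth.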

Structure (SMILES)	IC50 (second compound 0.1 µM)	IC50 (second compound 0.316 µM)	IC50 (second compound 1 µM)	IC50 (second compound 3.16 µM)	IC50 (second compound 10 µM)	viability, T/C [3]	viability, T/C [4]	viability, T/C [7]	viability, T/C [8]	viability, T/C [11]	viability, T/C [12]	viability, T/C [15]	viability, T/C [16]	viability, T/C [19]	viability, T/C [20]	viability, T/C [21]	viability, T/C [22]	viability, T/C [25]	viability, T/C [26]	viability, T/C [29]	also measured
COc1cc(C2c3cc4c(cc3C(OC3OC5COC(C)OC5C(O)C3O)C3COC(=O)C23)OCO4)cc(OC)c1O (stereo not given) + Cc1cncc(-c2nc(NCCc3c[nH]c4ccccc34)c3ncn(C(C)C)c3n2)c1	565 nM	581 nM	289 nM	261 nM	< 31.6 nM	92.6%	92.2%	78.7%	73.6%	77.1%	67%	62.3%	62.5%	46.5%	43.6%	64%	34.1%	64.8%	35.9%	48.9%	viability, T/C [23]: 24.2%; viability, T/C [24]: 13.3%; viability, T/C [27]: 24.7%; viability, T/C [28]: 12.9%; viability, T/C [30]: 28.7%; viability, T/C [31]: 23.4%; viability, T/C [32]: 13.1%; viability, T/C [33]: 47.5%; viability, T/C [34]: 25.9%; viability, T/C [35]: 21.2%; viability, T/C [36]: 13.5%; viability, T/C [37]: 37.2%; viability, T/C [38]: 26.2%; viability, T/C [39]: 22.3%; viability, T/C [40]: 20.2%
Nc1ncn(C2CC(O)C(CO)O2)c(=O)n1 (stereo not given) + Cc1cncc(-c2nc(NCCc3c[nH]c4ccccc34)c3ncn(C(C)C)c3n2)c1	> 1000 nM	> 1000 nM	> 1000 nM	> 1000 nM	9.68 nM	84%	89.6%	88.1%	79.3%	80.4%	77.8%	76.5%	67.6%	50%	47.1%	80.6%	65.6%	78.6%	70.7%	82%	viability, T/C [1]: 99.6%; viability, T/C [2]: 100%; viability, T/C [5]: 84.1%; viability, T/C [6]: 86.2%; viability, T/C [9]: 80.5%; viability, T/C [10]: 86.9%; viability, T/C [30]: 73.7%; viability, T/C [13]: 70.7%; viability, T/C [14]: 71.9%; viability, T/C [33]: 64.1%; viability, T/C [34]: 62.3%; viability, T/C [17]: 51.9%; viability, T/C [18]: 49%; viability, T/C [37]: 43.2%; viability, T/C [38]: 45.5%

Stronger by IC50 (second compound 0.1 µM), values ahead:

IC50 (second compound 0.1 µM)	IC50 (second compound 0.316 µM)	IC50 (second compound 1 µM)	IC50 (second compound 3.16 µM)	IC50 (second compound 10 µM)	Structure (SMILES)	viability, T/C [3]	viability, T/C [4]	viability, T/C [7]	viability, T/C [8]	viability, T/C [11]	viability, T/C [12]	viability, T/C [15]	viability, T/C [16]	viability, T/C [19]	viability, T/C [20]	viability, T/C [21]	viability, T/C [22]	viability, T/C [25]	viability, T/C [26]	viability, T/C [29]	also measured
39.2 nM	28.1 nM	30.2 nM	21 nM	1.19 nM	CC[C@@]1(O)C(=O)OCc2c1cc1n(c2=O)Cc2cc3c(CN(C)C)c(O)ccc3nc2-1 + Cc1cncc(-c2nc(NCCc3c[nH]c4ccccc34)c3ncn(C(C)C)c3n2)c1	58.9%	23.3%	49.6%	23.7%	54%	24.1%	44.2%	22.2%	33.4%	24.2%	–	–	–	–	–	viability, T/C (second compound 0.1 µM, first compound 0.000316 µM): 90.2%; viability, T/C (second compound 0.1 µM, first compound 0.001 µM): 90.4%; viability, T/C [1]: 89.5%; viability, T/C [2]: 68.1%; viability, T/C (second compound 0.316 µM, first compound 0.000316 µM): 89.1%; viability, T/C (second compound 0.316 µM, first compound 0.001 µM): 92.8%; viability, T/C [5]: 87.8%; viability, T/C [6]: 67.4%; viability, T/C (second compound 1 µM, first compound 0.000316 µM): 91%; viability, T/C (second compound 1 µM, first compound 0.001 µM): 90.6%; viability, T/C [9]: 80.9%; viability, T/C [10]: 60.3%; viability, T/C (second compound 3.16 µM, first compound 0.000316 µM): 69.9%; viability, T/C (second compound 3.16 µM, first compound 0.001 µM): 67.7%; viability, T/C [13]: 73.2%; viability, T/C [14]: 59.4%; viability, T/C (second compound 10 µM, first compound 0.000316 µM): 52.1%; viability, T/C (second compound 10 µM, first compound 0.001 µM): 49.1%; viability, T/C [17]: 50.1%; viability, T/C [18]: 37.5%
< 31.6 nM	< 31.6 nM	< 31.6 nM	< 31.6 nM	< 31.6 nM	COc1cccc2c1C(=O)c1c(O)c3c(c(O)c1C2=O)CC(O)(C(=O)CO)CC3OC1CC(N)C(O)C(C)O1 (stereo not given) + Cc1cncc(-c2nc(NCCc3c[nH]c4ccccc34)c3ncn(C(C)C)c3n2)c1	30.9%	25.2%	30.6%	23.2%	29.3%	22.7%	26.8%	22.1%	25.3%	21.3%	9.88%	0.21%	9.81%	0.2%	9.15%	viability, T/C [23]: 0.78%; viability, T/C [24]: 2.79%; viability, T/C [27]: 0.66%; viability, T/C [28]: 2.98%; viability, T/C [30]: 0.34%; viability, T/C [31]: 1.61%; viability, T/C [32]: 3.01%; viability, T/C [33]: 9.58%; viability, T/C [34]: 0.2%; viability, T/C [35]: 1.48%; viability, T/C [36]: 3.82%; viability, T/C [37]: 10.8%; viability, T/C [38]: 0.46%; viability, T/C [39]: 2.04%; viability, T/C [40]: 4.23%
< 31.6 nM	< 31.6 nM	< 31.6 nM	< 31.6 nM	< 31.6 nM	Nc1ccn(C2OC(CO)C(O)C2(F)F)c(=O)n1 (stereo not given) + Cc1cncc(-c2nc(NCCc3c[nH]c4ccccc34)c3ncn(C(C)C)c3n2)c1	8.94%	10.1%	10.2%	9.23%	12%	9.47%	13.8%	12.3%	29.8%	21.1%	9.38%	9.84%	9.06%	8.59%	9.26%	viability, T/C [23]: 9.57%; viability, T/C [24]: 7.01%; viability, T/C [27]: 9.76%; viability, T/C [28]: 6.34%; viability, T/C [30]: 9.49%; viability, T/C [31]: 8.78%; viability, T/C [32]: 7.47%; viability, T/C [33]: 10.2%; viability, T/C [34]: 11.6%; viability, T/C [35]: 11.6%; viability, T/C [36]: 8.76%; viability, T/C [37]: 19.3%; viability, T/C [38]: 15.2%; viability, T/C [39]: 15.8%; viability, T/C [40]: 13.4%
